Data as given in publication PMC10060427, “A glucose tolerant β-glucosidase from a newly isolated Neofusicoccum parvum strain F7: production, purification, and characterization” (Scientific Reports, 2023).

Assays:
Type in all cases: biochemical, Neofusicoccum parvum
Bgl3 = test system: T1, Bgl3; assay: 4-nitrophenol release at […] nm, Lineweaver-Burk plot; conditions: standard assay described as 50 mM sodium acetate pH 5.0, 55 °C; 4-NPG 0-13.28 mM
T1 construct: native extracellular enzyme purified from culture supernatant (ammonium sulphate, HiTrap Q FF, native gel extraction); about 65 kDa; GH3 only inferred by authors

Bgl2 = test system: T2, Bgl2; assay: 4-NPG hydrolysis, absorbance at […] nm, glucose […]; conditions: product inhibition; substrate 4-NPG; standard assay described as 50 mM sodium acetate pH 5.0, 55 °C
T2 construct: native extracellular enzyme purified from culture supernatant, extracted from native gel; 230 kDa on native PAGE

Bgl1 = test system: T3, Bgl1; assay: 4-NPG hydrolysis, absorbance at […] nm, glucose […]; conditions: product inhibition; substrate 4-NPG; standard assay described as 50 mM sodium acetate pH 5.0, 55 °C
T3 construct: native extracellular enzyme purified from culture supernatant, extracted from native gel; 240 kDa on native PAGE

O=[N+]([O-])c1ccc(O[C@@H]2O[C@H](CO)[C@@H](O)[C@H](O)[C@H]2O)cc1 [4-nitrophenyl-β-D-glucopyranoside]
Km (Bgl3): 1180 µM

OC[C@H]1OC(O)[C@H](O)[C@@H](O)[C@@H]1O (stereo partly drawn) [glucose]
IC50 (Bgl2): 22.6 mM
IC50 (Bgl1): 2.6 mM
